Key:
[1] = system: rice seedlings; assay: Germination and seedling shoot growth in water containing ABA; format: in vivo; settings: ABA 1 to 10 μM, 6 days, 28° C., 14-h light/10-h dark
Experimental: (§1) FIG. 9. The expression of SKIN is induced by various abiotic stresses and ABA, and SKINs promote the ABA sensitivity. (A) Total RNA was purified from leaves of 2-week-old rice seedlings that had been air dried, treated with 200 mM salt, incubated at 4° C., or treated with 1 μM ABA, or from embryos of seedlings grown underwater (hypoxia), for various lengths of time. RNAs were subjected to quantitative RT-PCR analysis using primers specific for SKIN1 and SKIN2. The highest mRNA level was set as 100%. The lowest mRNA level was assigned a value of 1× and mRNA levels of other samples were calculated relative to this value. Error bars indicate the SE for three replicate experiments. (B) Seeds of transgenic lines SKIN1-Ox(O3), SKIN1-Ri(R3), SKIN2-Ox(02) and SKIN2-Ri(R1) were germinated and grown in water containing various concentrations of ABA at 28° C. under a 14-h light/10-h dark cycle for 6 days. Lengths of shoots were measured. Error bars represent SE (n=8) at significance levels: * p<0.1, ** p<0.05. For photos of treated seedlings, see also FIG. 20 online.
FIG. 20. Growth of transgenic rice overexpressing SKIN is more sensitive to ABA inhibition. Seeds of transgenic lines SKIN1-Ox(O3), SKIN1-Ri(R3), SKIN2-Ox(02) and SKIN2-Ri(R1) were germinated and grown in water containing various concentrations of ABA for 6 days at 28 C under a 14-h light/10-h dark cycle. […]

[2] = system: SKIN1; assay: Quantitative RT-PCR of SKIN1 mRNA in leaves of 2-week-old rice seedlings after stress or ABA; format: in vivo; settings: 24 h after 1 μM ABA
Experimental: as §1, with “For photos of treated seedlings, see also FIG. 20 online.” left out
Total RNA was extracted from leaves of rice seedlings with the Trizol reagent (Invitrogen) and treated with RNase-free DNase I (Promega, Madison, Wis.). […] The quantitative variation between different samples was evaluated by the delta-delta CT method, and the amplification of 18S ribosomal RNA was used as an internal control to normalize all data.

[3] = system: SnRK1A-GFP; assay: Cellular localization of SnRK1A-GFP in transfected barley aleurones (confocal microscopy); format: cell-based; settings: 48 h; for % of total cells with SnRK1A-GFP in location [drawing 1] (nucleus) / % of total cells with SnRK1A-GFP in location [drawing 2] (cytoplasm) / Number of cells with SnRK1A-GFP in location [drawing 1] (nucleus) / Number of cells with SnRK1A-GFP in location [drawing 2] (cytoplasm): +ABA
Experimental: (§2) FIG. 10. ABA restricts SKINs, SnRK1A and MYBS1 in the cytoplasm under sugar starvation. Barley aleurones were co-transfected with indicated plasmid constructs and incubated in +S or −S medium with ABA (+ABA) or without ABA (−ABA) for 48 h. Thirty optical sections of 0.9-1.1 μm thickness were prepared for each cell and only five regularly spaced sections (sections 3, 9, 15, 21 and 27) are shown here. C and N indicate higher GFP signals, and c and n indicate lower GFP signals in the cytoplasm and nucleus, respectively. For more section images of each cell, see also FIG. 22 online. (A) Barley aleurones were transfected with Ubi:SKIN1-GFP, Ubi:SKIN2-GFP, Ubi:SnRK1A-GFP or Ubi:MYBS1-GFP alone. (B) Barley aleurones were transfected with Ubi.MYBS1-GFP alone (panel 1) or co-transfected with Ubi.MYBS1-GFP and Ubi:SnRK1A (panel 2), or with Ubi.MYBS1-GFP and Ubi:SnRK1A(Ri) (panel 3). (C) Barley aleurones were co-transfected with Ubi:SnRK1A-GFP and Ubi:SKIN(Ri). (D) Wild type rice (WT) or transgenic rice overexpression Ubi:SKIN(Ri) were transfected with Ubi:SnRK1A-GFP (panels 1-3) or Ubi.MYBS1-GFP (panels 4-6).
Detection of cellular localization of SKIN-GFP, SnRK1A-GFP and MYBS1-GFP fusion proteins were performed as described (Hong et al., 2012). Embryoless barley and rice seeds were sterilized with 1% NaOCl for 30 mins, and incubated in a buffer containing 20 mM CaCl2 and 20 mM sodium succinate, pH 5.0, for 4 days. Aleurone layers were isolated by scratching away starch in the endosperm with a razor blade. Four aleurone layers were arranged in a 10-cm dish for bombardment. Aleurone layers expressing GFP were examined with a Ziess confocal microscope (LSM510META) using a 488-nm laser line for excitation and a 515- to 560-nm long pass filter for emission.

[4] = system: αAmy3 SRC promoter; assay: Barley aleurone transient expression assay, SRC-35Smp:Luc reporter (luciferase); format: cell-based; settings: barley aleurones, 5 μM ABA or 400 mM sorbitol, 24 h
Experimental: FIG. 21. ABA and sorbitol suppress the function of SnRK1A in activation of αAmy3 SRC promoter. Rice embryos and barley aleurones were transfected with reporter SRC-35Smp:Luc with or without effectors, incubated with or without ABA for 24 h, and assayed for luciferase activity. The luciferase activity in embryos or aleurones bombarded with the SRC-35S mp-Luc construct only and in +S medium was set to 1×, and other values were calculated relative to this value. Error bars indicate the SE for three replicate experiments. (A) Plasmid constructs. (B) Barley aleurones were transfected with effector Ubi:SnRK1A, Ubi:SKIN1 or Ubi:SKIN(Ri) alone and reporter SRC-35Smp:Luc, or co-transfected with effectors Ubi:SnRK1A and Ubi:SKIN or Ubi:SKIN(Ri) and reporter SRC-35Smp:Luc. (C) Rice embryos (upper panel) were transfected with or without Ubi:SnRK1A and incubated with or without 1 μM ABA or 50 mM sorbitol, and barley aleurones (lower panel) were transfected with or without Ubi:SnRK1A and incubated with 5 μM ABA or 400 mM sorbitol.
The barley aleurone/endosperm transient expression assays were performed as described (Hong et al., 2012). Each independent experiment consisted of three replicates, with six endosperms for each treatment, and was repeated three times with similar results. Luciferase and GUS activity assays were performed as described (Hong et al., 2012). […]

[5] = system: SKIN-GFP; assay: Cellular localization of SKIN-GFP in transfected barley aleurones (confocal microscopy); format: cell-based; settings: −S medium containing ABA, 48 h
Experimental: as §2
Detection of cellular localization of SKIN-GFP, SnRK1A-GFP and MYBS1-GFP fusion proteins were performed as described (Hong et al., 2012). […]

## CC1=CC(=O)CC(C)(C)[C@@]1(O)/C=C/C(C)=C\C(=O)O [ABA, abscisic acid]
[1]
  Degree of inhibition on growth of wild type and all transgenic lines: increased with ABA concentrations from 1 to 10 μM
[2]
  Induction of SKIN1 mRNA accumulation: ≤ 4.2 fold
[3]; +S medium
  % of total cells with SnRK1A-GFP in location [drawing 1] (nucleus): 15.8%
  % of total cells with SnRK1A-GFP in location [drawing 2] (cytoplasm): 84.2%
  Number of cells with SnRK1A-GFP in location [drawing 1] (nucleus): 6
  Number of cells with SnRK1A-GFP in location [drawing 2] (cytoplasm): 32
[3]; −S medium containing ABA
  Localization of SnRK1A-GFP: exclusively localized in the cytoplasm
[3]; −S medium
  % of total cells with SnRK1A-GFP in location [drawing 1] (nucleus): 8.0%
  % of total cells with SnRK1A-GFP in location [drawing 2] (cytoplasm): 92.0%
  Number of cells with SnRK1A-GFP in location [drawing 1] (nucleus): 7
  Number of cells with SnRK1A-GFP in location [drawing 2] (cytoplasm): 81
[4]
  Effect on αAmy3 SRC promoter (luciferase activity), alone and SnRK1A-activated: suppressed
[5]
  Localization of SKIN-GFP: exclusively localized in the cytoplasm
